In paper PMC12990037, “Discovery of Two Structurally Distinct Classes of Inhibitors Targeting the Nuclease MUS81 and Enhancing Efficacy of Chemotherapy in Cancer Cells” (Journal of Medicinal Chemistry, 2026):

Key:
Assay type in all cases: cell-based
U2OS BIR-GFP cells = experiment: I-SceI-based BIR repair reporter assay; conditions: Homo sapiens, 72 h, normalized to DMSO
Experimental: 3 MUS81 inhibitors suppress HR and BIR. (A) I-SceI-based BIR repair efficiency was measured in U2OS BIR-GFP cells treated with DMSO, two different siRNAs targeting MUS81, or the indicated concentrations of MU262 and MU876, and their control analogues for 72 h. The percentage of repair was normalized to the DMSO-treated control (D). n = 3. Error bars represent standard deviation (s.d.); ****p <0.0001 (unpaired, two-tailed t-test). […] (C,D) I-SceI-based HR (C) and NHEJ (D) repair efficiency was measured using U2OS DR-GFP and EJ5-GFP cells, respectively, following treatment with DMSO, MU262,MU876, or their control analogues for 72 h. The percentage of repair was normalized to the DMSO-treated control. n = 3. Error bars represent s.d.; *p <0.05, **p <0.01, ****p <0.0001 (unpaired, two-tailed t-test).
Reporter DR-GFP and […] U2OS cells along with BIR-GFP cells were transfected with 2.5 μg of I-SceI-expressing pCAGGS vector and subsequently treated with MUS81 inhibitors at the indicated concentrations. After transfection (72 h), cells were trypsinized and resuspended in 3% BSA in PBS. GFP fluorescence detection was carried out using a BD FACSVerse flow cytometer, and the data were analyzed with FlowJo software (BD Life Sciences). Data presented in the graph were normalized to the DMSO-treated sample.

U2OS cells = experiment: Annexin V apoptotic assay; conditions: 3 days
Experimental: Given these promising findings, we further investigated the specificity of MU262 and MU876 and potential short-term cytotoxicity. To mirror the treatment duration used in BIR and HR assays, U2OS cells were exposed to the inhibitors or siRNA for 3 days.
U2OS WT cells (300,000) were seeded in a 6-well plate, a subset of them was treated with either control siRNA or siRNA targeting MUS81. After adhesion, cells were treated with the respective inhibitors for 72 h during which CPT (100 μM, Sigma-Aldrich) was added for the last 2 h. Cells were harvested, washed in ice-cold PBS, and collected by centrifugation at 500g for 5 min. Cells were simultaneously stained with FITC-labeled annexin V antibody (556419, Becton Dickinson) and PI (5 μL) at room temperature for 15 min, protected from light. Stained cells were analyzed using a BD FACSVerse flow cytometer (Becton Dickinson) and FlowJo software (BD Life Sciences). At least 20,000 cells were used for each measurement, and experiments were performed in duplicates.

CAL51 MUS81^–/– cells = experiment: Cell proliferation assay (CyQUANT), combination with cisplatin
Experimental: CAL51 WT, CAL51 MUS81^–/–, U2OS, and HEK293 cells were seeded in a 96-well plate and treated with the respective concentration of selected inhibitors. After incubation for 4–5 days, cells were harvested while the untreated control was still subconfluent. The plate was then incubated at −80 °C to achieve cell lysis. Cell proliferation was assessed using the CyQUANT Cell Proliferation Assay kit (Thermo Fisher Scientific) according to manufacturer’s instructions. […] was measured using a plate reader (Infinite F500, Tecan Austria GmbH).

CAL51 WT cells = experiment: γH2AX foci after cisplatin treatment; conditions: compared to the DMSO controls
Experimental: 7 MUS81 inhibitors synergize with cisplatin to reduce cancer cell viability. (A,B) U2OS cells were treated with DMSO, MU262, or MU876 at the indicated concentrations in combination with a range of cisplatin (0–5 μM) for 96–120 h. Cell viability was assessed by the Cy-Quant assay. The survival was normalized to the DMSO-treated control. Graphs were generated in Graphpad Prism using the nonlinear regression fitting model. n ≥ 3, error bars represent s.d. (C) CAL51 WT cells were treated with DMSO, MU262, or MU876 at the indicated concentrations at each passage over 2 weeks. Cisplatin (12 μM) was added for the last 24 h before harvest. DNA damage was assessed by quantifying γH2AX foci using fluorescence microscopy and CellProfiller software. Data were visualized plotted in R software. Red markers represent the median of γH2AX foci number per nucleus; blue markers represent the percentage of cells with ≥20 γH2AX foci per nucleus. n = 3, error bars represent s.d.; ****p <0.0001 (unpaired, two-tailed t-test). […]
U2OS, CAL51 WT, and CAL51 MUS81^–/– cells (10,000) were seeded in a 96-well plate 24 h before the treatment. […] The γH2AX foci were detected and quantified using CellProfiler (Broad Institute of MIT and Harvard). The analyzed data were plotted in RStudio software using R programming language.

SMILES: CCc1nn2c(O)c(-c3nc4ccccc4[nH]3)nnc2c1-c1ccc(F)cc1 [Compound 18, 3-(1H-Benzo[d]imidazole-2-yl)-7-ethyl-8-(4-fluorophenyl)pyrazolo[5,1-c][1,2,4]triazin-4-ol]
- IC50 (U2OS BIR-GFP cells): 1530 nM
- apoptosis (Annexin V staining) (U2OS cells): no increase in apoptosis
- sensitization to cisplatin (CAL51 MUS81^–/– cells): no additional sensitization
- γH2AX foci following cisplatin treatment (CAL51 WT cells): significantly reduced the number of γH2AX foci in a concentration-dependent manner

SMILES: Cc1cc(=O)[nH]c(-n2nc(-c3ccccc3)cc2NC(=O)c2cc(-c3ccccc3)on2)n1 [Compound 32, N-(1-(4-Methyl-6-oxo-1,6-dihydropyrimidin-2-yl)-3-phenyl-1H-pyrazol-5-yl)-5-phenylisoxazole-3-carboxamide]
- IC50 (U2OS BIR-GFP cells): 240 nM
- apoptosis (Annexin V staining) (U2OS cells): no increase in apoptosis
- sensitization to cisplatin (CAL51 MUS81^–/– cells): no additional sensitization
- γH2AX foci following cisplatin treatment (CAL51 WT cells): significantly reduced the number of γH2AX foci in a concentration-dependent manner
